Results from patent US20240390293A1, “DERIVATIVES OF THE PROTECTIN 10S,17S-DIHDA (PDX) AND USE THEREOF AS ANTIVIRAL, ANTI-INFLAMMATORY, AND ANTI-DIABETIC AGENTS” (priority 2021, published 2024).
Like-named read-outs stand apart in the source and are kept apart here.

Legend:
SARS-CoV-2 [1] = assay: Plaque Reduction Assay (PRA) of SARS-CoV-2 replication on VERO E6 cells; assay type: cell-based
iNOS = assay: LPS-induced iNOS activity (nitrite production, Griess method) in J774 macrophages; assay type: cell-based, mice; conditions: for nitrite production in LPS-induced J774 mice macrophages: LPS 2.5 ng/ml, 18 h, dose-dependent; for IC50: Mus musculus
Experimental: J774A.1 macrophages are grown in DMEM, supplemented with 10% Bovine Growth Serum (BGS) and 1% penicillin-streptomycin (PS). The J774A.1 macrophages are subsequently stimulated with LPS 2.5 ng/ml in DMEM supplemented with 10% BGS and 1% PS for 16 h-18 h. […] After incubation, the level of inflammation is evaluated by measuring the nitrite content in the medium by using the Griess method and normalized by protein concentration.

SARS-CoV-2 [2] = assay: SARS-CoV-2 infected hamsters: viral titers and weight variation; assay type: in vivo, Golden Syrian hamsters
Experimental: Animal Studies. 5-6 Week-old Golden Syrian hamsters were infected with 4.5 log PFU of original SARS-CoV-2 strain. On days 1, 2 and 3, or 1 to 5 post-infection, the animals were treated intraperitoneally with either Remdesivir (15 mg/kg), analog RM-598-48 (50 mg/kg), Remdesivir (15 mg/kg)+analog RM-598-48 (50 mg/kg), analog RM-598-44 (50 mg/kg), or with vehicle only (FIG. 28). The hamsters were monitored daily over a period of 14 days for clinical symptoms and weight loss. On day 4 post-infection, nasal turbinates and lungs were harvested to assess viral replication. All animal studies were approved by the Animal Protection Committee of the Centre Hospitalier Universitaire de Québec according to the Canadian Council on Animal Care guidelines.
Viral titers. Viral titers were determined in cell culture to characterize the presence of live virus. Ten-fold dilutions of nasal turbinates and lung homogenates were performed in infection medium. After one week of infection, titers were determined and reported in TCID50 per gram of organ.

[3] = test system: influenza A/Puerto Rico/8/34 (H1N1); assay type: cell-based; conditions: A549 cells, 24 hours
[4] = test system: interleukin-6 (IL-6) release; conditions: skeletal muscle cells; PDX at submicromolar concentrations; cited from earlier work
[5] = Severe acute respiratory syndrome coronavirus 2, Vero C1008, VERO E6 cells, plaque reduction assay, read-out: SARS-COV-2 Inhibition IC50
[6] = LPS-stimulated J774 macrophages, nitrite by Griess method, read-out: Anti-inflammatory Activity on iNOS IC50
[7] = Severe acute respiratory syndrome coronavirus 2, Vero C1008, read-out: SARS-COV-2 Inhibition (%)
[8] = 50 mg/kg IP from day 1 until day 5 post-infection

With `CC/C=C\C[C@H](O)/C=C/C=C\C=C\[C@@H](O)CCNCCCCCC` [PDX-6] the IC50 (SARS-CoV-2 [1]; [5]) was 29 µM, the “nitrite production in LPS-induced J774 mice macrophages” value (shortened to “nitrite production”) (iNOS) was “reduced nitrite production” and the IC50 (iNOS; [6]) was 50 µM.
With `CC/C=C\C[C@H](O)/C=C/C=C\C=C\[C@@H](O)CCOc1ccc2ccc(=O)oc2c1` [PDX-18] the “nitrite production” value (iNOS) was “reduced nitrite production”.
For `CC/C=C\C[C@H](O)C#C/C=C\C#C[C@@H](O)CCO` [PDX-Al-1], the inhibition at 5 µM (SARS-CoV-2 [1]; [7]) was 40%, the inhibition at 50 µM (SARS-CoV-2 [1]; [7]) was 30% and the “nitrite production” value (iNOS) was “reduced nitrite production”. For the same molecule, the IC50 (iNOS; J774, read-out: Anti-inflammatory Activity on iNOS IC50) was 18 µM and the “weight loss (weight variation, % of initial weight)” value (SARS-CoV-2 [2]; [8]) was “tendency to limit weight loss, but not in a significant manner”.
In the case of `CC/C=C\C[C@H](O)/C=C/C=C\C=C\[C@@H](O)CCOc1ccc(C)cc1` [PDX-1], the “nitrite production” value (iNOS) is reported as “reduced nitrite production” and the IC50 (iNOS; [6]) is reported as 11 µM.
With `CC/C=C\C[C@H](O)/C=C/C=C\C=C\[C@@H](O)CCOc1cccc(CC(=O)OC)c1` [PDX-22] the “nitrite production” value (iNOS) was “reduced nitrite production”.
In the case of `CC/C=C\C[C@H](O)/C=C/C=C\C=C\[C@@H](O)CCOc1ccncc1` [PDX-17], the “nitrite production” value (iNOS) is reported as “reduced nitrite production”.
For `CC/C=C\C[C@H](O)/C=C/C=C\C=C\[C@@H](O)CCOc1ccc(CC(N)=O)cc1` [PDX-24], the “nitrite production” value (iNOS) was “reduced nitrite production” and the “decrease in the viral charge” value ([3]; 50 μM) was 39%.
In the case of `CC/C=C\C[C@H](O)/C=C/C=C\C=C\[C@@H](O)CCOc1cccc(CC(=O)O)c1` [PDX-21], the “nitrite production” value (iNOS) is reported as “reduced nitrite production”.
In the case of `CC/C=C\C[C@H](O)/C=C/C=C\C=C\[C@@H](O)CCNCCC` [PDX-20], the “nitrite production” value (iNOS) is reported as “reduced nitrite production”.
Molecule `CCC(CC)COC(=O)[C@H](C)N[P@](=O)(OC[C@H]1O[C@@](C#N)(c2ccc3c(N)ncnn23)[C@H](O)[C@@H]1O)Oc1ccccc1` [Remdesivir, reference compound] has an IC50 (SARS-CoV-2 [1]; Severe acute respiratory syndrome coronavirus 2, Vero C1008, read-out: SARS-COV-2 Inhibition IC50) of 3.9 µM.
With `CC/C=C\C[C@H](O)/C=C/C=C\C=C\[C@@H](O)CCOc1ccc(C(=O)O)cc1` [PDX-19] the “nitrite production” value (iNOS) was “reduced nitrite production”.
For `O=C1c2c(O)c(=O)ccn2N([C@@H]2c3ccccc3SCc3c2ccc(F)c3F)[C@@H]2COCCN12` [BXA, Baloxavir acid], the “decrease in the viral charge” value ([3]; 5 μM) was 88%.
In the case of `CC/C=C\C[C@H](O)/C=C/C=C\C=C\[C@@H](O)C/C=C\C/C=C\CCC(=O)O` [PDX, 10S, 17S-diHDA, reference compound], the inhibition at 5 µM (SARS-CoV-2 [1]; Severe acute respiratory syndrome coronavirus 2, Vero C1008, 5 μM, VERO E6 cells, plaque reduction assay, read-out: SARS-COV-2 Inhibition (%)) is reported as 0%, the inhibition at 50 µM (SARS-CoV-2 [1]; Severe acute respiratory syndrome coronavirus 2, Vero C1008, 50 μM, VERO E6 cells, plaque reduction assay, read-out: SARS-COV-2 Inhibition (%)) is reported as 18% and the IC50 (iNOS; [6]) is reported as 96 µM. For the same molecule, the “release of interleukin-6 (IL-6)” value [4] was “induce the release”.
With `CC/C=C\C[C@H](O)/C=C/C=C\C=C\[C@@H](O)CCOc1ccc(CC(=O)OC)cc1` [PDX-2] the IC50 (SARS-CoV-2 [1]; [5]) was 33 µM, the “nitrite production” value (iNOS) was “reduced nitrite production” and the IC50 (iNOS; [6]) was 64 µM. The “weight loss (weight variation, % of initial weight)” value (SARS-CoV-2 [2]; [8]) was “significantly limit weight loss”, the “weight loss (weight variation, % of initial weight)” value (SARS-CoV-2 [2]; 50 mg/kg IP on days 1, 2 and 3 post-infection, significant at days 3, 9, 11, 12 and 14) was “significantly limit weight loss” and the “viral loads in nasal turbinates” value (SARS-CoV-2 [2]; 50 mg/kg IP on days 1, 2 and 3 post-infection, titers on day 4, vs untreated hamsters) was “significantly different from the untreated hamsters”.
For `CC/C=C\C[C@H](O)/C=C/C=C/C=C/[C@@H](O)CCN1CCCCC1` [PDX-10], the IC50 (SARS-CoV-2 [1]; [5]) was 56 µM, the “nitrite production” value (iNOS) was “reduced nitrite production” and the IC50 (iNOS; [6]) was 32 µM.
In the case of `O=c1c(O)c(-c2ccc(O)c(O)c2)oc2cc(O)cc(O)c12` [Quercetin, reference compound], the “nitrite production” value (iNOS) is reported as “reduced nitrite production”.
For `CC/C=C\C[C@H](O)\C=C/C=C/C=C/[C@H](O)C/C=C\C/C=C\CCC(=O)O` [PD1, protectin D1], the “decrease in the viral charge” value ([3]; 50 μM) is given as 10% and the “release of interleukin-6 (IL-6)” value [4] is given as “ineffective”.
In the case of `CC/C=C\C[C@H](O)/C=C/C=C\C=C\[C@@H](O)CCOc1ccc(C(=O)OC)cc1` [PDX-16], the “nitrite production” value (iNOS) is reported as “reduced nitrite production”.
For `CC/C=C\C[C@H](O)/C=C/C=C\C=C\[C@@H](O)CCOc1ccc(CC(=O)NC)cc1` [PDX-23], the “nitrite production” value (iNOS) was “reduced nitrite production”.
With `CC/C=C\C[C@H](O)/C=C/C=C\C=C\[C@@H](O)CCN1CCCCC1` [PDX-7] the “nitrite production” value (iNOS) was “reduced nitrite production”.
